What was measured:
[1] = test system: HGF-1 cells; experiment: Cell viability of HGF-1 cells incubated with deferoxamine; format: cell-based, human; conditions: HGF-1, deferoxamine 50, 100, 150 μM
Protocol: To better characterize the effectiveness of an iron chelator in regulating the upregulation of MMPs, HGF-1 cells were incubated with varying therapeutically relevant concentrations of deferoxamine (50, 100, 150 μM).

[2] = test system: MMP-2; experiment: Western blot of MMP-2 in HGF-1 cells treated with FAC, CMK or deferoxamine; format: cell-based, human; conditions: HGF-1, FAC 20, 50 and 100 μM, 48 hours, FIG. 7
Protocol: (§1) MMP inhibition was tested using CMK and deferoxamine (DES). Ferric ammonium citrate solid (FAC, Amresco) was prepared in 1 mM hydrochloric acid to form a 50 mM stock solution. Iron solutions were freshly made for each experiment and the iron content quantified through a colorimetric assay. Cells were induced with FAC concentrations of 20, 50, and 100 μM, LPS and CMK or a combination, and the cells were allowed to grow in the incubator for 48 hours.
(§2) During the protein extraction, media was collected, flash frozen and saved for later analysis, including Western Blot and ELISA. Cells were washed with cold PBS and lysed with RIPA buffer (150 mM NaCl, 50 mM Tris, 1% Sodium deoxycholate, 1% Triton X-100 and 0.1% SDS). Cells were collected with a cell scraper and centrifuged at 14000 rpms for 30 minutes. The supernatant was collected and assayed for protein concentration. Samples were mixed with 4×SDS loading buffer (40% Glycerol, 8% SDS, 200 mM Tris-HCl, 400 mM dithiothreitol, 0.005% bromophenol blue) for further analysis.
(§3) Gel electrophoresis was conducted using 12% sodium dodecyl sulfate (SDS) and polyacrylamide gels. Equal amounts (30-50 μg) of protein were loaded in each lane and allowed to separate for 1 hour at 150 V.
(§4) Proteins from gels were transferred into 0.45 μm nitrocellulose paper (Bio-Rad) using tris-glycine transfer buffer with 20% methanol using 400 mAmp for 90 minutes. […]

[3] = test system: Human MMP-8; MMP8; conditions: HGF-1, 100 μM FAC, FIG. 17
Protocol: (§5) Gene expression of MMPs was evaluated after treatment with CMK and deferoxamine. Tissue culture was washed with 1×PBS prior to collection of samples. Cells were lysed and RNA purified using an RNeasy mini kit (Cat #74104) from Qiagen. RNA prep Kit was used according to manufacturer's protocol. All samples were treated with Qiagen DNase (Cat #79254). One microgram of RNA was used for reverse transcription and subsequent SYBR® Green real time PCR for the genes of interest as previously described. Reverse transcription kits (Cat #330401) and SYBR Green real-time PCR master mixes (Cat #330523) were purchased from Qiagen (Louisville, KY).
(§6) The following primers and probes were used: Human MMP-2; MMP2 (Cat #PPH00151B), Human MMP-8; MMP8 (Cat #PPH00908C), Human MMP-13; MMP13 (Cat #PPH00121B), Human MMP-14; MMP14 (Cat #PPH00198C), and Human glyceraldehyde 3-phosphate dehydrogenase; GAPDH (Cat #PPH00150F).
(§7) FIG. 17 is a summary of the qPCR analysis for each MMP.

[4] = test system: MMPs; conditions: HGF-1, 100 μM FAC, FIG. 17
Protocol: as §5, §6, §7

[5] = test system: MMP-13; conditions: HGF-1, FAC 20, 50 and 100 μM, 48 hours, FIG. 8
Protocol: as §1, §2, §3, §4

[6] = test system: MMP-9; experiment: Western blot of MMP-9 in HGF-1 cells treated with FAC or deferoxamine; format: cell-based, human; conditions: HGF-1 stimulated with FAC 20, 50 and 100 μM, 48 hours, FIG. 10
Protocol: as §1, §2, §3, §4

[7] = test system: MMP-3; format: cell-based, human; conditions: HGF-1 stimulated with FAC 20, 50 and 100 μM, 48 hours, FIG. 11
Protocol: MMP inhibition was tested using CMK and deferoxamine (DES).
The supernatant was collected and assayed for protein concentration.

[8] = test system: MMP-14; experiment: Western blot of MMP-14 in HGF-1 cells treated with FAC, CMK or deferoxamine; format: cell-based, human; conditions: HGF-1, FAC 20, 50 and 100 μM, 48 hours, FIG. 9
Protocol: as §1, §2, §3, §4

| Compound | Cell viability [1] | presence of MMP-2 protein [2] | MMP-8 gene expression (qPCR) [3] | gene expression of the MMPs (qPCR) [4] | presence of MMP-13 protein [5] | MMP-9 protein expression [6] | MMP-3 protein expression [7] | presence of MMP-14 protein [8] |
| --- | --- | --- | --- | --- | --- | --- | --- | --- |
| CC(=O)N(O)CCCCCNC(=O)CCC(=O)N(O)CCCCCNC(=O)CCC(=O)N(O)CCCCCN [deferoxamine] | unaffected |  |  |  |  |  |  |  |
| Ferric ammonium citrate [FAC] |  | dose-dependent increased presence | except for MMP-8 | acted as an inducer of gene expression of the MMPs | dose-dependent increased presence | increased expression | increased expression | dose-dependent increased presence |
